Reference: US20250354993A1, “METHODS OF TREATING AND DIAGNOSING LUNG CANCER” (Yeda Research and Development Co. Ltd., priority 2019, published 2025)

What was measured:
PSME4 = experiment: Western blot of A549 cells treated with mizoribine; type: cell-based; settings: purine synthesis blocked using mizoribine, FIG. 26B
Method: FIG. 26A-B. PSME4 expression correlates with increased Pyrimidine and decreased Purine metabolites. (A) The log 2 fold change in abundance of cellar metabolites in PSME4 high or low expressing cell lines (x axis) is plotted against the significance of the change. […] (B) A549 cells were treated with mizoribine for the time indicated and then separated by SDS-PAGE and analyzed by Western blot probed with the following antibodies: PSME4, LMP7 (PSMB8), PSMB10, pana (recognized all PSMA subunits), and β actin. Cell Culture and Treatments: A549 cells were grown in DMEM supplemented with 10% fetal bovine serum, 1% Penicillin/streptomycin and L-glutamine (2 mM) (Biological industries) at 37° C. with 5% CO2. Cells were treated with 400 U*mL−1 TNFαand/or 200 U*mL-1 IFNγ (peprotech) for the indicated amount of time. Antibodies for Western blotting, immunoprecipitation and immunohistochemistry: Primary antibodies to the following were used: PSMA1 (hybridoma). PANα (PSMA1-7; Enzo, BML-PW8195-0025), PSME4 (Millipore Sigma HPA060922 and Proteintech 18799-1-AP), LMP7 (Cell signaling 13635), PSMB10 (Thermo Fisher PAS19146) and β-Actin (Abcam ab170325) The following secondary antibodies were used: goat anti-mouse HRP (115-035-003) and goat anti-rabbit HRP (111-035-003) (Jackson Labs).

proteasome = experiment: Proteasome Cleavage Reporter Assay in A549 active cell extract; type: biochemical
Method: FIGS. 33A-D Active cell extract was prepared from A549 lung cancer cells, cells treated with TNFα and IFNγ (TI) and cells treated with TI and recombinant PA200. As a control, MG132 proteasome inhibitor was added. The extracts were then incubated with LLVY-AMC (SEQ ID NO: 1) (A) or PAL-AMC (SEQ ID NO: 2) (B) for 3.5 hours and the relative fluorescence units (RFU) was measured every minute. The RFU for each condition using LLVY-AMC (SEQ ID NO: 1) (C) or PAL-AMC (SEQ ID NO: 2) (D) is shown at 1.5 and 3.5 hours across the different repeats of the experiment.
FIGS. 34A-D. Active cell extract was prepared from A549 lung cancer cells and cells treated with TNFα and IFNγ (TI). To each of these PA200 was added at a concentration of 4.7 nm (1:1) or 0.47 nm (1:10). As a control, MG132 proteasome inhibitor was added. The extracts were then incubated with LLE-AMC (SEQ ID NO: 3) (A), NPND-AMC (SEQ ID NO: 4) (B), LLVY-AMC (SEQ ID NO: 1) (C) or LLE-BNA (SEQ ID NO: 5) (D) for 3.5 hours and the relative fluorescence units (RFU) was measured every minute.
Proteasome Cleavage Reporter Assay: A549 cells, stimulated with TNFα and IFNγ for the indicated times, were collected and flash frozen. Frozen cells were re-suspended in lysis buffer (25 mM sucrose, 50 mM TRIS pH 7.4, 5 mM MgCl2, 0.5 mM EDTA, 2 mM ATP, 1 mM DTT). Lysates were passed 10 times through a 27 G needle, incubated on ice for 15 min and the centrifuged at 21130rcf for 10 min. Protein concentrations were measured using the Coomassie Plus (Bradford) Assay Kit (Pierce, ThermoFisher Scientific). […] of cellular lysate was incubated with 0.1 mM suc-LLVY-AMC (SEQ ID NO: 1), ac-PAL-AMC (SEQ ID NO: 2), Z-LLE-AMC (SEQ ID NO: 3) (Biotest), ac-NPND-AMC (SEQ ID NO: 4) and Z-LLE-βNA (SEQ ID NO: 5) (bachem) as per protocol and fluorescence levels were measured over time using a BioTek Synergy H1 plate reader (Ex: 360 nm, Em: 460 nm). The background protease activity was determined for each condition from an identically prepared sample with the addition of Mg132 proteasome inhibitor (0.04 mM; Calbiochem). […]

[1] = A549 extract, PA200 added at 4.7 nm (1:1) or 0.47 nm (1:10), FIG. 34A-D

Row | Compound | PSME4 expression (PSME4) | effect on the TNFα and IFNγ induced increase in proteasome cleavage (proteasome; A549 cells treated with TNFα and IFNγ plus recombinant PA200, LLVY-AMC or PAL-AMC, FIG. 33A-D) | chymotryptic cleavage (suc-LLVY-AMC) (proteasome; [1]) | constitutive proteasome caspase like activity (NPND-AMC + LLE-βNA) (proteasome; [1])
1 | NC(=O)c1ncn([C@@H]2O[C@H](CO)[C@@H](O)[C@H]2O)c1O [mizoribine] | decrease in PSME4 expression | – | – | –
2 | recombinant PSME4: recombinant Proteasome activator complex subunit 4 (PA200) added to A549 cell extract | – | partially reduced | reduction of activity | induces the activity
